Patent publication US12509431B2, “1,4-dihydroquinazolinone compounds and uses thereof” (Edgewise Therapeutics, Inc., priority 2022, dated 2025)

Experiments:
Format in all cases: biochemical
Details in all cases: Table 8
[1] = test system: Rabbit Skeletal myofibrils (rabbit psoas muscle); experiment: Myofibril ATPase assay (PK/LDH NADH-coupled), skeletal myofibrils
Protocol: (§1) Myofibril ATPase assays are known in the art to be useful in evaluating small molecules for the treatment of HCM and other cardiac indications. Myosin ATPase activity is assessed by using a coupled reaction system, in which ADP generated by the myosin ATPase function is coupled to the disappearance of NADH through the pyruvate kinase/lactate dehydrogenase (PK-LDH) system. ATPase activity produces ADP, which is used as a substrate for PK to produce pyruvate and regenerate ATP. The pyruvate is then used as a substrate by LDH to oxidize NADH to NAD+. The rate of the reaction is monitored through the time-dependent disappearance of NADH using absorbance at 340 nm, which, when the couple system is in stoichiometric excess, is directly correlated to the ATPase activity of the myosin. Inhibition of ATPase activity by the assayed compounds is indicated by a reduced rate of NADH loss, relative to vehicle-treated controls, over the experimental time window. Rabbit Skeletal and Porcine Ventricle are the primary sources of myofibril material.
(§2) Materials: The following stock solutions and reagents were used in the Myofibril ATPase Assay:
(§3) Stock Solutions of pCa buffer. Combine PIPES, CaCl2), and EGTA solutions with water. Adjust pH to 7.0 and bring final volume to 100 mL.
(§4) Buffer A & Buffer B. Prepare buffers A and B according to the table below.
(§5) Myofibril ATPase Assay Procedure: BSA, ATP, NADH, PEP, and DTT solutions were thawed at room temperature, then transferred to ice. Pellet-frozen myofibrils were transferred with approximately twice the required volume into a sufficiently large tube and capped. Myofibrils were thawed by rolling in a water bath for approximately 15 min at room temperature and cooled on ice. Buffers A and B were prepared by adjusting volumes as necessary for required number of wells and stored on ice. 0.5 μL of the compounds to be assayed were added into wells. 25 μL of Buffer A was dispensed into the wells, followed by 25 μL of Buffer B. The wells were measured for absorbance at 340 nm, using a kinetic protocol in which the wells are read every 1.5-2 min for 75 min. Assay data analysis was performed using a python script that filtered the raw data to retain those points falling between a starting and ending time and between a maximum and minimum absorbance, then used the filtered time-domain 340 nm absorbance data in each well to calculate a slope via linear regression analysis in units of mAU/min. Compound slopes were normalized between 100% and 0% activity, where 100% represented the slope of wells containing only compound vehicle, and fit to a 4-parameter logistic model. In addition to the fit parameters, the EC25% is calculated, relative to the 100% normalized value. In the case of inhibitors, EC50% is also calculated, if available. Fit parameters, calculated effective concentrations, filtered raw data, and calculated slopes were exported, in addition to compound-specific graphs of normalized ATPase activity versus concentration in μM.
Skeletal Myofibril Isolation:
Myofibrils from various animals and tissue types were acquired from a variety of sources: rabbit psoas muscle was purchased from Pel-Freez Biologicals (Rogers, AR) and porcine cardiac muscle was purchased from Exemplar Genetics. All myofibrils were prepared using a method based upon those described in Herrmann et al. (1993) and summarized here. Minced tissue was homogenized for 50 sec with a Polytron homogenizer into 10 volumes (relative to weight in grams) of Isolation Buffer A (50 mM Tris, pH 8.0, 0.1 M potassium acetate, 5 mM KCl, 2 mM DTT, 5 mM EDTA, 0.5% v/v Triton X-100) supplemented with 0.1 mM PMSF, 10 μM leupeptin, 5 μM pepstatin, and 0.5 mM sodium azide. The myofibrils were recovered by centrifugation (Beckman Allegra 6R, 1200 g, 10 min) and resuspended in 10 volumes Isolation Buffer B (Buffer A above without protease inhibitors or sodium azide). The myofibrils were further homogenized as before and recovered by centrifugation. […]

Porcine Atria myofibrils = experiment: Myofibril ATPase assay (PK/LDH NADH-coupled), atria myofibrils
Protocol: as §5

[2] = target: T1, Porcine Ventricle myofibrils (left ventricle of Yucatan minipigs) (Sus scrofa, UniProt P79293); experiment: Myofibril ATPase assay (PK/LDH NADH-coupled), ventricle myofibrils
T1 construct: Myofibrils from porcine cardiac muscle was isolated from the left ventricle of Yucatan minipigs; tissue Exemplar Genetics; host or cells: left ventricle of Yucatan minipigs
T1 sequence (P79293 whole entry): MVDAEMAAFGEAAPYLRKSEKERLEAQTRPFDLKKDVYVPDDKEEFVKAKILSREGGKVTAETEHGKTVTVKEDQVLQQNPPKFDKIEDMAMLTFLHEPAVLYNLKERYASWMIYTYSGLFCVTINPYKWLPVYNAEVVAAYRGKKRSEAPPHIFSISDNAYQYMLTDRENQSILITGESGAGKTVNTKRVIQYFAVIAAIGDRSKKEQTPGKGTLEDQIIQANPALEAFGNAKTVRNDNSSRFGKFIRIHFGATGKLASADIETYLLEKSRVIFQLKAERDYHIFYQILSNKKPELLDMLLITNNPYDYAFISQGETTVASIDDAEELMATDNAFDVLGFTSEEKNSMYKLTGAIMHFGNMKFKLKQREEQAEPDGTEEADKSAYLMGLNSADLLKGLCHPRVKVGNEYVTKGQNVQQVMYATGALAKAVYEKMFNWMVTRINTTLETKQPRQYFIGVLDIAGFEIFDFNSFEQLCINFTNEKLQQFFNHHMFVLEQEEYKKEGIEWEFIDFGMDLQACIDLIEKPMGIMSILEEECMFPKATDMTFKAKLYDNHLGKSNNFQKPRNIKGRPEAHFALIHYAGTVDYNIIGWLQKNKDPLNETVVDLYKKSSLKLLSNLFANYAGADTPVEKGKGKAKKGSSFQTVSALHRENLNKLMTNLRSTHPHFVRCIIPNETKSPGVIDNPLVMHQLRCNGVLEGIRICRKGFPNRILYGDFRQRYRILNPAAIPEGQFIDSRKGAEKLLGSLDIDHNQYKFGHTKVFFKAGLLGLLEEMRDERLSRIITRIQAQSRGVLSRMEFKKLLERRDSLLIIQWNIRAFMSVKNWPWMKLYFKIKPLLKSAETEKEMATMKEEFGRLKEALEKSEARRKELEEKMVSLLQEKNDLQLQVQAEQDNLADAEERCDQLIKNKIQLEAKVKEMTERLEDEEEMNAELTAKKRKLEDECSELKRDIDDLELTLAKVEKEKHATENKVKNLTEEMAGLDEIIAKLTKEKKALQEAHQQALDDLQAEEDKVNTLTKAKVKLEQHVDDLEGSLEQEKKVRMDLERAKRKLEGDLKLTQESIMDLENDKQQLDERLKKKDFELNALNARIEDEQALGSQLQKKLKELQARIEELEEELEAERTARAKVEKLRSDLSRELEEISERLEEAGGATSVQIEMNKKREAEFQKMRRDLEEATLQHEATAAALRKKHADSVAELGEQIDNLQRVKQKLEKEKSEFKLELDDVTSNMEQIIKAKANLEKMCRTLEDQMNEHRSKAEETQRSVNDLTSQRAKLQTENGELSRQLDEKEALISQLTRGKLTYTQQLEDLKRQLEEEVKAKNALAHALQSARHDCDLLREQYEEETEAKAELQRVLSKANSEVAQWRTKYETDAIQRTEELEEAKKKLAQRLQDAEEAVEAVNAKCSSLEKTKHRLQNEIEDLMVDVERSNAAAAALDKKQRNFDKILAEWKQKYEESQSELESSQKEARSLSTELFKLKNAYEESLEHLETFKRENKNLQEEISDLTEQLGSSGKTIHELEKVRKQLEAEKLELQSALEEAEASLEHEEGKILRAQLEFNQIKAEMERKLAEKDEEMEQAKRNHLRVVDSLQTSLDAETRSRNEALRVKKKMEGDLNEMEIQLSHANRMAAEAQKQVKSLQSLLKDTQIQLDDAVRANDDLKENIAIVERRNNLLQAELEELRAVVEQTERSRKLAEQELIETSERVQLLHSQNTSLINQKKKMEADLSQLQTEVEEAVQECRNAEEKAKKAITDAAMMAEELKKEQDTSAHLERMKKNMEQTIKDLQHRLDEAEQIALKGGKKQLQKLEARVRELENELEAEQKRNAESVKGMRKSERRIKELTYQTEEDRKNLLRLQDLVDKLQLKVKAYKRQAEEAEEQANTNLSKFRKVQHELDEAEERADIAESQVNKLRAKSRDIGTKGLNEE
Protocol: as §1, §2, §3, §4, §5
Cardiac Myofibril Isolation:
Myofibrils from porcine cardiac muscle was isolated from the left ventricle of Yucatan minipigs. Myofibrils were prepared using a method based upon those described in Herrmann et al. (1993) and summarized here. Minced tissue was homogenized for 50 sec with a Polytron homogenizer into 10 volumes (relative to weight in grams) of Isolation Buffer A (75 mM KCl, 10 mM Imidazole, 2 mM MgCl2, 2 mM EGTA, 1 mM NaN3, 1% v/v Triton X-100) supplemented with 4 mM Phosphocreatine, 1 mM ATP, 50 mM BDM, 1 mM DTT, 1 mM Benzamide HCl, 0.1 mM PMSF, 10 μM leupeptin, 5 μM pepstatin, and 10 mM EDTA. The myofibrils were recovered by centrifugation (Beckman Allegra 6R, 1200 g, 15 min) and resuspended in 10 volumes Isolation Buffer B (Buffer A above without supplemental reagents). The myofibrils were further homogenized described above and recovered by centrifugation for 7 mins. Cellular membranes and debris were removed by 3 washes in Isolation Buffer B, centrifuging each as before. […]

| SMILES | Rabbit Psoas IC25 [1] [nM] | Porcine Atria IC25 (Porcine Atria myofibrils) [nM] | Porcine Ventricle IC25 [2] [nM] |
| --- | --- | --- | --- |
| Cc1ccc2c(c1F)CN(CC(=O)N[C@@H](C)c1ccc(C#N)cc1F)C(=O)N2 [Compound B31, N-[(1S)-1-(4-cyano-2-fluorophenyl)ethyl]-2-(5-fluoro-6-methyl-2-oxo-1,4-dihydroquinazolin-3-yl)acetamide] | 10 | 20 | 42.1 |
| C[C@@H](NC(=O)CN1Cc2c(F)cc(Cl)cc2NC1=O)c1ccc(C#N)cc1F [Compound B32] | 1003 | 280 | 548 |
| C[C@H](NC(=O)CN1Cc2c(F)cc(Cl)cc2NC1=O)c1ccc(C#N)cc1F [Compound B33, 2-(7-Chloro-5-fluoro-2-oxo-1,4-dihydroquinazolin-3-yl)-N-[(1S)-1-(4-cyano-2-fluorophenyl)ethyl]acetamide] | 9.3 | 20 | 66.7 |
| Cc1cc([C@@H](C)NC(=O)CN2Cc3c(ccc(F)c3F)NC2=O)ncc1C#N [Compound B34] | 100000 | 160 | 3618 |
| C[C@@H](NC(=O)CN1Cc2c(ccc(F)c2F)NC1=O)c1ncc(F)cc1Cl [Compound B36] | 10.5 | 20 | 14.8 |
| C[C@H](NC(=O)CN1Cc2c(ccc(F)c2F)NC1=O)c1ncc(F)cc1Cl [Compound B37] | 384.4 | 280 | 490.1 |
| Cc1cc(F)cnc1[C@@H](C)NC(=O)CN1Cc2c(ccc(F)c2F)NC1=O [Compound B38] | 10640 | 980 | 3820 |
| Cc1cc(F)cnc1[C@H](C)NC(=O)CN1Cc2c(ccc(F)c2F)NC1=O [Compound B39] | 20.3 | 20 | 48.3 |
| C[C@@H](NC(=O)CN1Cc2cc(F)cc(Cl)c2NC1=O)c1ccc(C#N)cc1F [Compound B40] | 100000 | 100000 | 17720 |
| C[C@H](NC(=O)CN1Cc2cc(F)cc(Cl)c2NC1=O)c1ccc(C#N)cc1F [Compound B41] | 85.7 | 1740 | 1384 |
| C[C@@H](NC(=O)CN1Cc2c(F)cc(F)cc2NC1=O)c1ccc(C#N)cc1F [Compound B42] | 745.5 | 590 | 3177 |
| C[C@H](NC(=O)CN1Cc2c(F)cc(F)cc2NC1=O)c1ccc(C#N)cc1F [Compound B43] | 15.8 | 40 | 47.3 |
| C[C@@H](NC(=O)CN1Cc2cc(F)c(F)cc2NC1=O)c1ccc(C#N)cc1F [Compound B44] | 4901 | 450 | 527.8 |
| C[C@H](NC(=O)CN1Cc2cc(F)c(F)cc2NC1=O)c1ccc(C#N)cc1F [Compound B45, N-[(1S)-1-(4-cyano-2-fluorophenyl)ethyl]-2-(6,7-difluoro-2-oxo-1,4-dihydroquinazolin-3-yl)acetamide] | 11.5 | 20 | 45.7 |
| Cc1cnncc1[C@@H](C)NC(=O)CN1Cc2c(ccc(F)c2F)NC1=O [Compound B46] | 660.1 | 580 | 1847 |
| C[C@H](NC(=O)[C@H](CC1CC1)N1Cc2c(ccc(F)c2F)NC1=O)c1ccc(F)cc1F [Compound B48] | 12650 | 100000 | 62100 |
| C[C@@H](NC(=O)[C@@H](CC1CC1)N1Cc2c(ccc(F)c2F)NC1=O)c1ccc(F)cc1F [Compound B49] | 100000 | 6510 | 45960 |
| CC(C)C[C@@H](C(=O)N[C@@H](C)c1ncc(F)cc1F)N1Cc2c(ccc(F)c2F)NC1=O [Compound B50] | 100000 | 100000 | 42560 |
| CC(C)C[C@H](C(=O)N[C@H](C)c1ncc(F)cc1F)N1Cc2c(ccc(F)c2F)NC1=O [Compound B51] | 100000 | 49070 | 100000 |
| C[C@@H](NC(=O)CN1Cc2c(ccc(F)c2F)NC1=O)c1cc(C#N)c(F)cn1 [Compound B52] | 3964 | 420 | 1456 |
| Cc1nc(C#N)cnc1[C@@H](C)NC(=O)CN1Cc2c(ccc(F)c2F)NC1=O [Compound B54] | 579.6 | 110 | 962.8 |
| Cc1cc(F)cc2c1CN(CC(=O)N[C@H](C)c1ccc(C#N)cc1F)C(=O)N2 [Compound B56] | 1887 | 1640 | 1991 |
| Cc1cc(F)cc2c1CN(CC(=O)N[C@@H](C)c1ccc(C#N)cc1F)C(=O)N2 [Compound B57] | 13.9 | 40 | 89.9 |
| Cc1cc(F)cc2c1NC(=O)N(CC(=O)N[C@H](C)c1ccc(C#N)cc1F)C2 [Compound B58] | 6712 | 1020 | 4230 |
| Cc1cc(F)cc2c1NC(=O)N(CC(=O)N[C@@H](C)c1ccc(C#N)cc1F)C2 [Compound B59, N-[(1S)-1-(4-cyano-2-fluorophenyl)ethyl]-2-(6-fluoro-8-methyl-2-oxo-1,4-dihydroquinazolin-3-yl)acetamide] | 81.8 | 630 | 951.9 |
| CC(C)C[C@@H](C(=O)N[C@@H](C)c1ccc(F)cc1F)N1Cc2c(ccc(F)c2F)NC1=O [Compound B60] | 2769 | 800 | 100000 |
| CC(C)C[C@H](C(=O)N[C@H](C)c1ccc(F)cc1F)N1Cc2c(ccc(F)c2F)NC1=O [Compound B61] | 100000 | 100000 | 100000 |
| O=C(CN1Cc2c(ccc(F)c2F)NC1=O)N[C@@H]1COCc2cc(F)cc(F)c21 [Compound B62] | 14.3 | 40 | 41.5 |
| O=C(CN1Cc2c(ccc(F)c2F)NC1=O)N[C@H]1COCc2cc(F)cc(F)c21 [Compound B63] | 100000 | 1810 | 100000 |
